{"source": "patent US4254127A", "about": "“1,3-Dihydro-1-[(1-piperidinyl)alkyl]-2H-benzimidazol-2-one derivatives” (Janssen Pharmaceutica, N.V., priority 1980, dated 1981)", "key": {"[1]": {"system": "apomorphine-induced emesis", "experiment": "apomorphine test in dogs (APO-dog): protection from emesis", "format": "in vivo, beagle dogs", "conditions": "Canis lupus familiaris, sc, apomorphine 0.31 mg/kg s.c. 1 hour after compound, dose protecting 50% from emesis", "description": "2. The apomorphine test in dogs (APO-dog). The method used is described by P. A. J. Janssen and C. J. E. Niemegeers in Arzneim.-Forsch."}, "[2]": {"system": "lesions induced by compound 48/80", "experiment": "gastric lesion test: lesions induced by compound 48/80", "format": "in vivo, rats", "conditions": "Rattus norvegicus"}, "[3]": {"system": "tryptamine-induced bilateral tonic seizures", "experiment": "combined test in rats: tryptamine (TRY)-induced bilateral tonic seizures", "format": "in vivo, adult male Wistar rats", "conditions": "sc, 1.5 h; s.c.; rat; tryptamine 40 mg/kg i.v. at 90 minutes; dose protecting 50% of animals; read-out: ED0 (TRY)-rat"}, "[4]": {"system": "apomorphine-induced phenomena: agitation and stereotypic chewing", "experiment": "combined test in rats: apomorphine (APO)-induced agitation and stereotypic chewing", "format": "in vivo, adult male Wistar rats", "conditions": "sc, 0.5 h; s.c.; rat; apomorphine hydrochloride 1.25 mg/kg i.v. 30 minutes after compound; dose protecting 50% of animals"}, "[5]": {"system": "lesions induced by compound 48/80", "conditions": "rats, known serotonin antagonists; cited from earlier work"}}}
{"smiles": "O=c1[nH]c2ccccc2n1CCCN1CCC(CC(O)c2ccc(F)cc2)CC1", "note": "(stereo not shown)", "values": [{"measurement": "ED50", "setting": "[1]", "value": 0.5, "unit": "mg/kg"}, {"measurement": "ED50", "setting": "[2]", "value": 0.08, "unit": "mg/kg"}]}
{"smiles": "O=C(CC1CCN(CCn2c(=O)[nH]c3ccccc32)CC1)c1ccc(F)cc1", "note": "[H, H, H, (CH2)2, CO, 4-FC6 H4, base, 1-[2-[4-[2-(4-fluorophenyl)-2-oxoethyl]-1-piperidinyl]ethyl]-1,3-dihydro-2H-benzimidazol-2-one]", "values": [{"measurement": "ED50", "setting": "[3]", "value": 0.31, "unit": "mg/kg"}, {"measurement": "ED50", "setting": "[4]", "value": 0.31, "unit": "mg/kg"}, {"measurement": "ED50", "setting": "[1]", "value": 0.03, "unit": "mg/kg"}, {"measurement": "ED50", "setting": "[2]", "value": 0.01, "unit": "mg/kg"}]}
{"smiles": "Cn1c(=O)n(CCCN2CCC(CC(=O)c3ccc(F)cc3)CC2)c2ccccc21", "note": "[H, H, CH3, (CH2)3, CO, 4-FC6 H4, base]", "values": [{"measurement": "ED50", "setting": "[3]", "value": 1.25, "unit": "mg/kg"}, {"measurement": "ED50", "setting": "[2]", "value": 0.31, "unit": "mg/kg"}]}
{"smiles": "O=C(CC1CCN(CCn2c(=O)[nH]c3cc(Cl)ccc32)CC1)c1ccc(F)cc1", "note": "[5-Cl, H, H, (CH2)2, CO, 4-FC6 H4, base]", "values": [{"measurement": "ED50", "setting": "[3]", "value": 5, "unit": "mg/kg"}, {"measurement": "ED50", "setting": "[4]", "value": 2.5, "unit": "mg/kg"}, {"measurement": "ED50", "setting": "[1]", "value": 0.12, "unit": "mg/kg"}, {"measurement": "ED50", "setting": "[2]", "value": 0.63, "unit": "mg/kg"}]}
{"smiles": "O=C(CC1CCN(CCn2c(=O)[nH]c3ccccc32)CC1)c1ccc(Cl)cc1", "note": "[H, H, H, (CH2)2, CO, 4-ClC6 H4, base]", "values": [{"measurement": "ED50", "setting": "[3]", "value": 2.5, "unit": "mg/kg"}, {"measurement": "ED50", "setting": "[4]", "value": 0.63, "unit": "mg/kg"}, {"measurement": "ED50", "setting": "[1]", "value": 0.5, "unit": "mg/kg"}, {"measurement": "ED50", "setting": "[2]", "value": 0.16, "unit": "mg/kg"}]}
{"smiles": "CN1C[C@H](CNC(=O)OCc2ccccc2)C[C@@H]2c3cccc4c3c(cn4C)C[C@H]21", "note": "[metergoline]", "values": [{"measurement": "prevention of cyanosis of ears and extremities", "setting": "[5]", "value": "prevent completely"}, {"measurement": "prevention of lesions in the glandular area of the stomach and abnormal gastric distension", "setting": "[5]", "value": "prevent completely"}]}
{"smiles": "NC(=O)C1(N2CCCCC2)CCN(CCCC(=O)c2ccc(F)cc2)CC1", "note": "[pipamperone]", "values": [{"measurement": "prevention of cyanosis of ears and extremities", "setting": "[5]", "value": "prevent completely"}, {"measurement": "prevention of lesions in the glandular area of the stomach and abnormal gastric distension", "setting": "[5]", "value": "prevent completely"}]}
{"smiles": "O=C(CC1CCN(CCn2c(=O)[nH]c3ccccc32)CC1)c1ccccc1", "note": "[H, H, H, (CH2)2, CO, C6 H5, base]", "values": [{"measurement": "ED50", "setting": "[3]", "value": 2.5, "unit": "mg/kg"}, {"measurement": "ED50", "setting": "[4]", "value": 0.63, "unit": "mg/kg"}, {"measurement": "ED50", "setting": "[1]", "value": 0.25, "unit": "mg/kg"}, {"measurement": "ED50", "setting": "[2]", "value": 0.31, "unit": "mg/kg"}]}
{"smiles": "CN1CCC(=C2c3ccccc3CCc3sccc32)CC1", "note": "[pizotifen]", "values": [{"measurement": "prevention of cyanosis of ears and extremities", "setting": "[5]", "value": "prevent completely"}, {"measurement": "prevention of lesions in the glandular area of the stomach and abnormal gastric distension", "setting": "[5]", "value": "prevent completely"}]}
{"smiles": "Cc1ccc(C(=O)CC2CCN(CCn3c(=O)[nH]c4ccccc43)CC2)cc1", "note": "[H, H, H, (CH2)2, CO, 4-CH3C6 H4, base]", "values": [{"measurement": "ED50", "setting": "[3]", "value": 2.5, "unit": "mg/kg"}, {"measurement": "ED50", "setting": "[1]", "value": 0.5, "unit": "mg/kg"}, {"measurement": "ED50", "setting": "[2]", "value": 0.63, "unit": "mg/kg"}]}
{"smiles": "O=C(CCCN1CCC2(CC1)C(=O)NCN2c1ccccc1)c1ccc(F)cc1", "note": "[spiperone]", "values": [{"measurement": "prevention of cyanosis of ears and extremities", "setting": "[5]", "value": "prevent completely"}, {"measurement": "prevention of lesions in the glandular area of the stomach and abnormal gastric distension", "setting": "[5]", "value": "prevent completely"}]}
{"smiles": "O=C(CC1CCN(CCn2c(=O)[nH]c3ccc(Cl)cc32)CC1)c1ccc(F)cc1", "note": "[6-Cl, H, H, (CH2)2, CO, 4-FC6 H4, base]", "values": [{"measurement": "ED50", "setting": "[3]", "value": 1.25, "unit": "mg/kg"}, {"measurement": "ED50", "setting": "[4]", "value": 2.5, "unit": "mg/kg"}, {"measurement": "ED50", "setting": "[1]", "value": 0.5, "unit": "mg/kg"}, {"measurement": "ED50", "setting": "[2]", "value": 0.63, "unit": "mg/kg"}]}
{"smiles": "CN(C)CCCSc1ccccc1NC(=O)/C=C/c1ccccc1", "note": "[cinanserin]", "values": [{"measurement": "prevention of cyanosis of ears and extremities", "setting": "[5]", "value": "prevent completely"}, {"measurement": "prevention of lesions in the glandular area of the stomach and abnormal gastric distension", "setting": "[5]", "value": "prevent completely"}]}
{"smiles": "CC(=O)n1c(=O)n(CCN2CCC(CC(=O)c3ccc(F)cc3)CC2)c2ccccc21", "note": "[H, H, CH3 CO, (CH2)2, CO, 4-FC6 H4, base, 1-acetyl-3-[2-[4-[2-(4-fluorophenyl)-2-oxoethyl]-1-piperidinyl]ethyl]-1,3-dihydro-2H-benzimidazol-2-one]", "values": [{"measurement": "ED50", "setting": "[3]", "value": 1.25, "unit": "mg/kg"}, {"measurement": "ED50", "setting": "[4]", "value": 1.25, "unit": "mg/kg"}, {"measurement": "ED50", "setting": "[1]", "value": 1, "unit": "mg/kg"}, {"measurement": "ED50", "setting": "[2]", "value": 0.08, "unit": "mg/kg"}]}
{"smiles": "CC[C@@H](CO)NC(=O)[C@@H]1C=C2c3cccc4c3c(cn4C)C[C@H]2N(C)C1", "note": "[methysergide]", "values": [{"measurement": "prevention of cyanosis of ears and extremities", "setting": "[5]", "value": "prevent completely"}, {"measurement": "prevention of lesions in the glandular area of the stomach and abnormal gastric distension", "setting": "[5]", "value": "prevent completely"}]}
{"smiles": "CC(CCn1c(=O)[nH]c2ccccc21)N1CCC(CC(=O)c2ccc(F)cc2)CC1", "note": "(stereo not shown) [H, H, H, [drawing 21], CO, 4-FC6 H4, base, 1-[3-[4-[2-(4-fluorophenyl)-2-oxoethyl]-1-piperidinyl]butyl]-1,3-dihydro-2H-benzimidazol-2-one]", "values": [{"measurement": "ED50", "setting": "[3]", "value": 5, "unit": "mg/kg"}, {"measurement": "ED50", "setting": "[2]", "value": 1.25, "unit": "mg/kg"}]}
{"smiles": "CN1CCN2c3ccccc3Cc3ccccc3C2C1", "note": "(stereo not shown) [mianserin]", "values": [{"measurement": "prevention of cyanosis of ears and extremities", "setting": "[5]", "value": "prevent completely"}, {"measurement": "prevention of lesions in the glandular area of the stomach and abnormal gastric distension", "setting": "[5]", "value": "prevent completely"}]}
{"smiles": "O=C(CC1CCN(CCCn2c(=O)[nH]c3ccccc32)CC1)c1ccc(F)cc1", "note": "[H, H, H, (CH2)3, CO, 4-FC6 H4, base, 1-[3-[4-[2-(4-fluorophenyl)-2-oxoethyl]-1-piperidinyl]propyl]-1,3-dihydro-2H-benzimidazol-2-one]", "values": [{"measurement": "ED50", "setting": "[3]", "value": 1.25, "unit": "mg/kg"}, {"measurement": "ED50", "setting": "[2]", "value": 0.08, "unit": "mg/kg"}]}
{"smiles": "CN1CCC(=C2c3ccccc3C=Cc3ccccc32)CC1", "note": "[cyproheptadine]", "values": [{"measurement": "prevention of cyanosis of ears and extremities", "setting": "[5]", "value": "prevent completely"}, {"measurement": "prevention of lesions in the glandular area of the stomach and abnormal gastric distension", "setting": "[5]", "value": "prevent completely"}]}
{"smiles": "Cn1c(=O)n(CCN2CCC(CC(=O)c3ccc(F)cc3)CC2)c2ccccc21", "note": "[H, H, CH3, (CH2)2, CO, 4-FC6 H4, base]", "values": [{"measurement": "ED50", "setting": "[3]", "value": 0.63, "unit": "mg/kg"}, {"measurement": "ED50", "setting": "[4]", "value": 0.63, "unit": "mg/kg"}, {"measurement": "ED50", "setting": "[1]", "value": 0.63, "unit": "mg/kg"}, {"measurement": "ED50", "setting": "[2]", "value": 0.31, "unit": "mg/kg"}]}
{"smiles": "Cc1ccc2c(c1)[nH]c(=O)n2CCN1CCC(CC(=O)c2ccc(F)cc2)CC1", "note": "[5-CH3, H, H, (CH2)2, CO, 4-FC6 H4, base]", "values": [{"measurement": "ED50", "setting": "[3]", "value": 0.63, "unit": "mg/kg"}, {"measurement": "ED50", "setting": "[1]", "value": 0.08, "unit": "mg/kg"}, {"measurement": "ED50", "setting": "[2]", "value": 0.63, "unit": "mg/kg"}]}
{"smiles": "O=C(CC1CCN(CCn2c(=O)[nH]c3cc(F)ccc32)CC1)c1ccc(F)cc1", "note": "[5-F, H, H, (CH2)2, CO, 4-FC6 H4, base]", "values": [{"measurement": "ED50", "setting": "[3]", "value": 0.63, "unit": "mg/kg"}, {"measurement": "ED50", "setting": "[4]", "value": 0.16, "unit": "mg/kg"}, {"measurement": "ED50", "setting": "[2]", "value": 0.31, "unit": "mg/kg"}]}
